Measured values: US20190112357A1, “PREVENTION OF PROTEIN DISULFIDE BOND REDUCTION” (MedImmune, LLC, priority 2016, published 2019)

How the values were obtained:
[1] = target: T1, recombinant mammalian TrxR1/Trx1 (Rattus norvegicus, UniProt O89049); test: Reduction of purified mAb B by recombinant TrxR1/Trx1, capillary electrophoresis; type: biochemical, human (Trx1); conditions: 0.1 mM ATG, purified mAb B, overnight, oxygen-free
T1 construct: purchased Cayman Chemical (TrxR1); Abcam (Trx1)
T1 sequence (O89049 1-499): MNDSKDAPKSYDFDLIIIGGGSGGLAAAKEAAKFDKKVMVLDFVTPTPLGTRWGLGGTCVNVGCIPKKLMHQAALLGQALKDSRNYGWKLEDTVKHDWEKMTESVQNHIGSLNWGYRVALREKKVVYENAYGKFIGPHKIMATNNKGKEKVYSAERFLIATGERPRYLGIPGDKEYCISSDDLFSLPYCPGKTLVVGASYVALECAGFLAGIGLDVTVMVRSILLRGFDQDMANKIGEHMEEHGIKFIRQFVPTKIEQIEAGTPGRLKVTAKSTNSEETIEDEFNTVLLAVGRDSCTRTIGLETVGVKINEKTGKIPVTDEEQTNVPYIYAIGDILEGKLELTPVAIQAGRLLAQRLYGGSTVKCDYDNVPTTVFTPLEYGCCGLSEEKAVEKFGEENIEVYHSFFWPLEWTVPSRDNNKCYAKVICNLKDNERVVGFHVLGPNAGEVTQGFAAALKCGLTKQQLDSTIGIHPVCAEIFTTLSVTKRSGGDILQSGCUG
Protocol: (§1) Antibody reduction in cell culture supernatant samples was measured by detecting the presence of reduced species via capillary electrophoresis using standard procedures on a 2100 Bioanalyzer system (Agilent Technologies, Santa Clara, Calif.). Samples were diluted 1-6 fold depending on titer and analyzed under non-reducing conditions following 2100 Bioanalyzer standard protocols. Supernatant samples from 3 L bioreactors were stored frozen until all samples had been acquired and were ready for analysis. Samples were thawed on ice and analyzed immediately to evaluate the amount of reduced antibody in the reactor on each day of the run.
The role of each enzymatic system in antibody reduction was evaluated by determining the conditions under which these reductase systems cause antibody reduction. Using purified recombinant mammalian reductases, the thioredoxin system was evaluated by spiking purified mAb B into five solutions containing: 1) no enzymes, 2) 1 μM TrxR1, 3) 0.1 μM TrxR1, 4) […], and 5) 0.1 μM TrxR1+2.5 μM Trx1. All samples contained 0.4 mM NADPH and were stored at room temperature overnight. Digital gel-like images were obtained from microchip-based capillary electrophoresis analysis.
(§2) To confirm that the activity from a particular reductase system can translate into reduced antibody, a second method was developed to determine the impact of each reductase system on antibody reduction. The principle of the reduction assay is similar to the reductase activity assay described above. The percent of protein reduction without an inhibitor was compared to the percent of protein reduction in the presence of specific inhibitors for GR or TrxR1. In this assay, purified mAb B was spiked into solutions containing recombinant mammalian TrxR1/Trx1 or recombinant mammalian GR/GSSG and stored in an oxygen-free environment overnight. The percent of reduced mAb B antibody was evaluated using capillary electrophoresis, as set forth above.

[2] = target: T2, recombinant mammalian GR/GSSG (Homo sapiens, UniProt P00390); test: Reduction of purified mAb B by recombinant GR/GSSG, capillary electrophoresis; type: biochemical
T2 construct: purchased Abcam
T2 sequence (P00390 44-522): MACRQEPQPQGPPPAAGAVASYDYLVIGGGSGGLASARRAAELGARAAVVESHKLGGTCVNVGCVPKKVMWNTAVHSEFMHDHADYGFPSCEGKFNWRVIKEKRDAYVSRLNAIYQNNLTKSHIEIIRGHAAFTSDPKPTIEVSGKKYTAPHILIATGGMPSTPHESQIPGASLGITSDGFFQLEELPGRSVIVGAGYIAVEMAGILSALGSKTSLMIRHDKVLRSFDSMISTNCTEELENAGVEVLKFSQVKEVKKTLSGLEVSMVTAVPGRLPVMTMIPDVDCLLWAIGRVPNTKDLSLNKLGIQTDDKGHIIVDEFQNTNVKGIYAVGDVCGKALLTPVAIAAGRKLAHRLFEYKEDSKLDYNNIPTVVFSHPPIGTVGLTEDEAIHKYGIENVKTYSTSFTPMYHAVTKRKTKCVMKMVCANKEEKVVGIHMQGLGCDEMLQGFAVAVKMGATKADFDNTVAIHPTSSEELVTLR
Protocol: as §1
Using the same approach with recombinant mammalian enzymes, the glutathione system was evaluated by spiking mAb B into five solutions containing: 1) no enzyme, 2) 1 mM GSSG (oxidized glutathione), 3) 0.2 μM GR (glutathione reductase), 4) 0.2 μM GR with 1 mM GSSG, and 5) 0.02 μM GR with 1 mM GSSG. […] The results indicated a minimal mAb B reduction in the solutions containing GSSG alone. This is the result of an impurity in the GSSG. […] was reduced in the solutions containing both GR and GSSG.
as §2

[3] = test system: GR isolated from CHO cell culture; test: mAb B reduction by pooled CHO fractions with NADPH and GSSG; type: biochemical, Chinese Hamster; conditions: 3 μM Cu^2+ or 100 μM ATG, overnight room temperature
Protocol: Purified mAb B was spiked into several solutions containing different combinations of the pooled fractions (PF), recombinant Trx1, GSSG, NADPH, ATG, and Cu^2+. The solutions were incubated at room temperature overnight and the amount of intact antibody remaining was determined by capillary electrophoresis according to the protocol described above. In the first set of samples, purified mAb B was spiked into the pooled fractions with, and without, NADPH.
In the second set of samples, purified mAb B was spiked into solutions containing the pooled enzymes, NADPH, GSSG, and either no inhibitor, 3 μM Cu^2+, or 100 μM ATG. […] This solution contained GR, GSSG, and NADPH, which are needed for the glutathione system.

[4] = target: T3, recombinant TrxR1/Trx1 (Rattus norvegicus, UniProt O89049); test: DTNB reductase activity assay, recombinant TrxR1/Trx1; conditions: ATG concentrations higher than 0.1 μM
T3 sequence (O89049 1-499): T1 sequence (O89049 1-499)
Protocol: This assay allows determination of the total reductase activity in a culture sample, as well as determination of the individual contribution made by thioredoxin reductase and glutathione reductase to the total reductase activity of the sample. In this assay, culture samples (cells+media) from 3 L bioreactors were stored frozen until the end of the run, after which the samples were centrifuged to remove the cell pellet then the resulting supernatant was diluted 20-fold into 100 mM tris buffer, pH 7.4, containing 0.4 mM NADPH, 0.15 mM oxidized glutathione, and 3 mM DTNB with the indicated concentration of specific reductase inhibitor. Addition of the enzyme specific inhibitors to the samples allowed the total reductase activity to be determined as well as the individual activity from the thioredoxin and glutathione systems. Reductase activity was monitored by spectroscopic measurement of the increase in absorbance at a wavelength of 412 nm. […] The detected increase in absorbance at this wavelength is caused by the reduction of DTNB (Arnér, ESJ, Biochim. Biophys. Acta—Gen. Subj., 1790:495-526, 2009).
Briefly, culture samples were thawed on ice. […] The absorbance at a wavelength of 412 nm was determined every 30 seconds, for 20 minutes.
Activity of the reductases was calculated as follows. The change in absorbance per minute (Δ412) for each well was determined. […]

Compound: OC[C@H]1O[C@H]([S-])[C@H](O)[C@@H](O)[C@@H]1O.[Au+] [ATG, aurothioglucose]
- antibody reduction in sample containing TrxR1/Trx1 [1]: complete inhibition of antibody reduction
- antibody reduction in sample containing GR/GSSG ([2]; 0.1 mM ATG, purified mAb B, overnight, oxygen-free): complete reduction of the antibody
- specificity in GR/GSSG samples at higher concentrations ([2]; 0.5 mM and 1 mM ATG, increasing intact antibody): no longer specific for the thioredoxin system
- antibody reduction in pooled enzymes, NADPH, GSSG [3]: did not inhibit antibody reduction
- TrxR1/Trx1 reductase activity [4]: negligible
